Laboratory results as given in patent publication US20260199564A1, “METHOD OF PREVENTING BLOOD COAGULATION AND DRUG-ELUTING IMPLANT FOR PERCUTANEOUS CORONARY INTERVENTION” (priority 2023, published 2026).

Tested on: Human platelets
Assay: Platelet aggregation test (anticoagulant test), collagen-treated platelet-rich plasma
Assay type: cell-based
Details: PRP, 5 μg/ml collagen, CK 0-80 μM
Method: • a. A 20 mM CK stock solution is prepared with DMSO and is diluted with 1×PBS to the different working concentrations (0, 62.5, 125, 250, 500, 1000, and 2000 μM) before experiments.
The donator should rest and fast for 12 h and not smoke before blood collection. Medication such as antihistamines, antibiotics, Aspirin, and anti-inflammatory drugs are not allowed to take 10-14 days before tests due to the potential of affecting platelet function.
To ensure the absence of coagulation, the blood sample should be fully mixed with the anticoagulant and stored at 24-27° C. It is recommended to conduct the platelet aggregation test within 30-150 min after blood sample collection.
Slightly invert the blood collection tubes 3-4 times to resuspend the blood cells. Centrifuge the samples at 170×g for 7 min and transfer the supernatants to the new tubes. The samples should be used within 5-10 min after separation; otherwise, the samples should be stored at 4° C. to avoid agglutination. […]
To test the effect of CK on the function of platelet aggregation, different concentrations of CK (0, 2.5, 5, 10, 20, 40, and 80 μM) are added to 0.25 ml PRP. […] OD value is measured with a spectrometer at 650 nm, and the value is converted into an aggregate percentage.
The aggregation percentage of platelet is calculated with the following formula: […]

Compound: CC(C)=CCC[C@](C)(O[C@@H]1O[C@H](CO)[C@@H](O)[C@H](O)[C@H]1O)[C@H]1CC[C@]2(C)[C@@H]1[C@H](O)C[C@@H]1[C@@]3(C)CC[C@H](O)C(C)(C)[C@@H]3CC[C@]12C [CK, Ginsenoside compound K]
- platelet aggregation level after treating the platelet with CK: decreased
